Test results as given in ChEMBL document CHEMBL4665865, “New series of isoxazole derivatives targeting EGFR-TK: Synthesis, molecular modeling and antitumor evaluation” (Bioorg Med Chem, 2020).
pIC50: −log10 of the molar value.

Tests used:
HCT-116 [1] = assay: Induction of cell cycle arrest in human HCT-116 cells assessed as cell debris at antiproliferative IC50 by PI staining based flow cytometric analysis (reference value: 1.42%); assay type: functional; details: time 24 hrs
HCT-116 [2] = assay: Induction of cell cycle arrest in human HCT-116 cells assessed as aggregates at antiproliferative IC50 by PI staining based flow cytometric analysis (reference value: 1.61%); assay type: functional; details: time 24 hrs
MCF7 [3] = assay: Induction of cell cycle arrest in human MCF7 cells assessed as aggregates at antiproliferative IC50 by PI staining based flow cytometric analysis (reference value: 2.11%); assay type: functional; details: time 24 hrs
HepG2 [4] = assay: Induction of cell cycle arrest in human HepG2 cells assessed as cell debris at antiproliferative IC50 by PI staining based flow cytometric analysis (reference value: 1.52%); assay type: functional; details: time 24 hrs
HepG2 [5] = assay: Induction of cell cycle arrest in human HepG2 cells assessed as aggregates at antiproliferative IC50 by PI staining based flow cytometric analysis (reference value: 1.52%); assay type: functional; details: time 24 hrs
[6] = target: T1, Casein kinase II subunit alpha (Homo sapiens, UniProt P68400); assay: Inhibition of CK2 alpha (unknown origin) at 10 uM relative to control
Target sequence in this assay (P68400 whole entry, looked up): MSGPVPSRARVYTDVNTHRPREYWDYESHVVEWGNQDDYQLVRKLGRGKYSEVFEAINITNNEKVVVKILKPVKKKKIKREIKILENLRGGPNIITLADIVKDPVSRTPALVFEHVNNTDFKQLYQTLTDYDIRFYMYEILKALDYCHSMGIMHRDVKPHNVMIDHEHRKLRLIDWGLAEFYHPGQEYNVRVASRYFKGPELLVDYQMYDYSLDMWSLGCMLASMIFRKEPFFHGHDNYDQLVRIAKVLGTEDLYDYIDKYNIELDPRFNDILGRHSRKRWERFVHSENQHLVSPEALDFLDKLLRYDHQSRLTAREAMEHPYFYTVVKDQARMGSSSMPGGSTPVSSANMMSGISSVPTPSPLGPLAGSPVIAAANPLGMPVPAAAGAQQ

HCT-116 [7] = assay: Induction of apoptosis in human HCT-116 cells assessed as decrease in Bcl-2 protein expression by Western blot analysis relative to untreated control; assay type: functional
MCF7 [8] = assay: Induction of apoptosis in human MCF-7 cells assessed as decrease in Bcl-2 protein expression by Western blot analysis relative to untreated control; assay type: functional
HepG2 [9] = assay: Induction of apoptosis in human HepG2 cells assessed as decrease in Bcl-2 protein expression by Western blot analysis relative to untreated control; assay type: functional
HCT-116 [10] = assay: Induction of apoptosis in human HCT-116 cells assessed as increase in Bax protein expression by Western blot analysis relative to untreated control; assay type: functional
MCF7 [11] = assay: Induction of apoptosis in human MCF-7 cells assessed as increase in Bax protein expression by Western blot analysis relative to untreated control; assay type: functional
HepG2 [12] = assay: Induction of apoptosis in human HepG2 cells assessed as increase in Bax protein expression by Western blot analysis relative to untreated control; assay type: functional
MCF7 [13] = assay: Induction of apoptosis in human MCF-7 cells assessed as increase in caspase-9 level after 24 hrs by Western blot analysis relative to untreated control; assay type: functional
HCT-116 [14] = assay: Induction of apoptosis in human HCT-116 cells assessed as necrotic cells at antiproliferative IC50 incubated for 24 hrs by annexin V FITC and propidium iodide staining based flow cytometry (reference value: 0.59 %); assay type: functional
MCF7 [15] = assay: Induction of apoptosis in human MCF7 cells assessed as necrotic cells at antiproliferative IC50 incubated for 24 hrs by annexin V FITC and propidium iodide staining based flow cytometry (reference value: 1.11 %); assay type: functional
HepG2 [16] = assay: Induction of apoptosis in human HepG2 cells assessed as necrotic cells at antiproliferative IC50 incubated for 24 hrs by annexin V FITC and propidium iodide staining based flow cytometry (reference value: 0.52 %); assay type: functional
MCF7 [17] = assay: Induction of apoptosis in human MCF7 cells assessed as late apoptotic cells at antiproliferative IC50 incubated for 24 hrs by annexin V FITC and propidium iodide staining based flow cytometry (reference value: 0.28 %); assay type: functional
HCT-116 [18] = assay: Induction of apoptosis in human HCT-116 cells assessed as early apoptotic cells at antiproliferative IC50 incubated for 24 hrs by annexin V FITC and propidium iodide staining based flow cytometry (reference value: 0.41 %); assay type: functional
MCF7 [19] = assay: Induction of apoptosis in human MCF7 cells assessed as early apoptotic cells at antiproliferative IC50 incubated for 24 hrs by annexin V FITC and propidium iodide staining based flow cytometry (reference value: 0.39 %); assay type: functional
HepG2 [20] = assay: Induction of apoptosis in human HepG2 cells assessed as early apoptotic cells at antiproliferative IC50 incubated for 24 hrs by annexin V FITC and propidium iodide staining based flow cytometry (reference value: 0.61 %); assay type: functional
HCT-116 [21] = assay: Induction of cell cycle arrest in human HCT-116 cells assessed as accumulation of cells at Pre-G1 phase at antiproliferative IC50 by PI staining based flow cytometric analysis (reference value: 1.19%); assay type: functional
HCT-116 [22] = assay: Induction of cell cycle arrest in human HCT-116 cells assessed as accumulation of cells at G0/G1 phase at antiproliferative IC50 by PI staining based flow cytometric analysis (reference value: 48.52%); assay type: functional
MCF7 [23] = assay: Induction of cell cycle arrest in human MCF7 cells assessed as accumulation of cells at G2/M phase at antiproliferative IC50 by PI staining based flow cytometric analysis (reference value: 10.95%); assay type: functional
MCF7 [24] = assay: Induction of cell cycle arrest in human MCF7 cells assessed as accumulation of cells at Pre-G1 phase at antiproliferative IC50 by PI staining based flow cytometric analysis (reference value: 1.78%); assay type: functional
MCF7 [25] = assay: Induction of cell cycle arrest in human MCF7 cells assessed as accumulation of cells at G0/G1 phase at antiproliferative IC50 by PI staining based flow cytometric analysis (reference value: 56.14%); assay type: functional
HepG2 [26] = assay: Induction of cell cycle arrest in human HepG2 cells assessed as accumulation of cells at Pre-G1 phase at antiproliferative IC50 by PI staining based flow cytometric analysis (reference value: 1.44%); assay type: functional
HepG2 [27] = assay: Induction of cell cycle arrest in human HepG2 cells assessed as accumulation of cells at G2/M phase at antiproliferative IC50 by PI staining based flow cytometric analysis (reference value: 14.09%); assay type: functional
Tubulin = assay: Inhibition of tubulin polymerization (unknown origin) relative to control; assay type: protein-complex assay, Homo sapiens
HepG2 [28] = assay: Induction of cell cycle arrest in human HepG2 cells assessed as accumulation of cells at G0/G1 phase at antiproliferative IC50 by PI staining based flow cytometric analysis (reference value: 51.88%); assay type: functional
DNA topoisomerase 2-beta = DNA topoisomerase 2-beta (Homo sapiens, UniProt Q02880); assay: Inhibition of Topoisomerase II beta (unknown origin) relative to control
Sequence of DNA topoisomerase 2-beta (Q02880 whole entry): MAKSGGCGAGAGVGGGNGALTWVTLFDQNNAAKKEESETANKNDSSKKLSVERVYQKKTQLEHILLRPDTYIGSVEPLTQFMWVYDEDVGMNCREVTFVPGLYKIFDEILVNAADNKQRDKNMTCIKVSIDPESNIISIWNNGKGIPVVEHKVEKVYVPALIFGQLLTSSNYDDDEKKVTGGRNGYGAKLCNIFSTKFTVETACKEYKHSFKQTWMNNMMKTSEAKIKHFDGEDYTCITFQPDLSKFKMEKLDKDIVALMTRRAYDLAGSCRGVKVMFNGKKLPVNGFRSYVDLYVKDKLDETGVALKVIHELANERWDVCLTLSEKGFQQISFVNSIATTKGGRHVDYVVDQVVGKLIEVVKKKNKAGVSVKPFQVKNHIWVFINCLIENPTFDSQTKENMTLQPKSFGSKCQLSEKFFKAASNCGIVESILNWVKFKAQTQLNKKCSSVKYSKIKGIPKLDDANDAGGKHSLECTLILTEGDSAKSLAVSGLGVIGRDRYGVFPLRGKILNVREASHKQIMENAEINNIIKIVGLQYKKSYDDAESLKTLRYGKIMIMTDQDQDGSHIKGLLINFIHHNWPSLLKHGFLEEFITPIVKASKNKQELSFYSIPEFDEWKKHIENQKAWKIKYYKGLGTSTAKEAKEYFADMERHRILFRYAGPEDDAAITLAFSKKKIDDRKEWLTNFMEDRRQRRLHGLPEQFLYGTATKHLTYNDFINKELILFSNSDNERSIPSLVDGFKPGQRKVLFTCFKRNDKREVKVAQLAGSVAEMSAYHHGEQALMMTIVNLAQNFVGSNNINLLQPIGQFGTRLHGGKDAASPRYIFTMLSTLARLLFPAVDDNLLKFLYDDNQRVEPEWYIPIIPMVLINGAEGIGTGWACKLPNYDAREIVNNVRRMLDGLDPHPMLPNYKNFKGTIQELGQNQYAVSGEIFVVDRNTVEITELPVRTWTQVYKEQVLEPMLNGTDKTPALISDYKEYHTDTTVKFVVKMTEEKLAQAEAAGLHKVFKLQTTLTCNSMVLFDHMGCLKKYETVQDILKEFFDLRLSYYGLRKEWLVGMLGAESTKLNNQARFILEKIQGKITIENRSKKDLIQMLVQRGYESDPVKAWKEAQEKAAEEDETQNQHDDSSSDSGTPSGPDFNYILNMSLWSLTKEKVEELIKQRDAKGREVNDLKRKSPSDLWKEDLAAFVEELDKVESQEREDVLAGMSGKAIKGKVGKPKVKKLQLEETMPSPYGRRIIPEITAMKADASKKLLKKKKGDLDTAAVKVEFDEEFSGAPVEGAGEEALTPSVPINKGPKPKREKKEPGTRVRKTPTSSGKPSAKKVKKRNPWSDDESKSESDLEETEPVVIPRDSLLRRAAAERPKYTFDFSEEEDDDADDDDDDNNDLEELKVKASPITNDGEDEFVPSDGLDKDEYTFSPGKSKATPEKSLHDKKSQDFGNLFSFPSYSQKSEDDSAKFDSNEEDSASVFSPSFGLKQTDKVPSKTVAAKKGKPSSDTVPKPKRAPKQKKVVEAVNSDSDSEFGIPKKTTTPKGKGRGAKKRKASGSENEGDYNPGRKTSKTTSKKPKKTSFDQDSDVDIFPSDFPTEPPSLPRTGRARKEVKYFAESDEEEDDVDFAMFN

[29] = target: T1, Casein kinase II subunit alpha; assay: Inhibition of CK2 alpha (unknown origin) relative to control
Target sequence in this assay (P68400 whole entry): as the sequence (P68400 whole entry, looked up) above

[30] = target: Epidermal growth factor receptor (Homo sapiens, UniProt P00533); assay: Inhibition of EGFR-TK (unknown origin) relative to control
Sequence of Epidermal growth factor receptor (P00533 whole entry): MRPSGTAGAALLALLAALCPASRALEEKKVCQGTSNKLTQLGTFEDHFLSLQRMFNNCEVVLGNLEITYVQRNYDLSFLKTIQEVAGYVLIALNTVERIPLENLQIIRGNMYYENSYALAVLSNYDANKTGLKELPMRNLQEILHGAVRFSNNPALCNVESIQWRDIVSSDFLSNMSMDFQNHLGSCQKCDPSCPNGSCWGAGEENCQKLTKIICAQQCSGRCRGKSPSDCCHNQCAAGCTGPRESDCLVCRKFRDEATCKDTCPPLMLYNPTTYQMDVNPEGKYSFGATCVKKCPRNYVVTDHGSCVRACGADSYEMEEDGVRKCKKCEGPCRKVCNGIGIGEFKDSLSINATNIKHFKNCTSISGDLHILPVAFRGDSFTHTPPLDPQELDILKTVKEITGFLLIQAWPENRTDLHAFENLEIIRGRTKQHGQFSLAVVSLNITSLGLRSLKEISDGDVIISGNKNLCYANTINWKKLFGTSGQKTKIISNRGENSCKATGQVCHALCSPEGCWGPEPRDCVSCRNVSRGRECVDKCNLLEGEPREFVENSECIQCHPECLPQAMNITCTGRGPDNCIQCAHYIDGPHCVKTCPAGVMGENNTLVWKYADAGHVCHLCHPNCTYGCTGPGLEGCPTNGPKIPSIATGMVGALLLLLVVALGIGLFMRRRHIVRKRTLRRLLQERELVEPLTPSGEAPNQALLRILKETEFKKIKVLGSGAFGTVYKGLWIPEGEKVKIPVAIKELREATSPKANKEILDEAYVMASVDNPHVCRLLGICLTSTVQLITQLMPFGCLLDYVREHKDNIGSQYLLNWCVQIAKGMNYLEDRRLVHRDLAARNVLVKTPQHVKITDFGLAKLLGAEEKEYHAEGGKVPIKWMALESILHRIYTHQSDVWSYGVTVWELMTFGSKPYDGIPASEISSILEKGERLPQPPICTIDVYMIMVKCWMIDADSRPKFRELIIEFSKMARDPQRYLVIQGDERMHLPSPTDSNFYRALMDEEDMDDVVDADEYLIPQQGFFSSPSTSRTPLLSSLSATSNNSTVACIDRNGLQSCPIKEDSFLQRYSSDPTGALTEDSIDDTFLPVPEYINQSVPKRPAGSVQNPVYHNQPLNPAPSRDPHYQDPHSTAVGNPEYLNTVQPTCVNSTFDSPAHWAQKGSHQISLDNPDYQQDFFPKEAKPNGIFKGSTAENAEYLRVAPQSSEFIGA

WI-38 = assay: Cytotoxicity against human WI38 cells assessed as reduction in cell viability by MTT assay; assay type: cell-based
HCT-116 [31] = assay: Antitumor activity against human HCT-116 cells assessed as inhibition of cell viability by MTT assay; assay type: functional, cell-based
MCF7 [32] = assay: Antitumor activity against human MCF7 cells assessed as inhibition of cell viability by MTT assay; assay type: functional, cell-based
HCT-116 [33] = assay: Induction of cell cycle arrest in human HCT-116 cells assessed as accumulation of cells at S phase at antiproliferative IC50 by PI staining based flow cytometric analysis (reference value: 35.61%); assay type: functional
HCT-116 [34] = assay: Induction of cell cycle arrest in human HCT-116 cells assessed as accumulation of cells at G2/M phase at antiproliferative IC50 by PI staining based flow cytometric analysis (reference value: 15.87%); assay type: functional
HepG2 [35] = assay: Induction of cell cycle arrest in human HepG2 cells assessed as accumulation of cells at S phase at antiproliferative IC50 by PI staining based flow cytometric analysis (reference value: 34.03%); assay type: functional

## Cc1cc(NC2=NC(=O)/C(=C\c3c4ccccc4cc4ccccc34)S2)no1
HCT-116 [1]
  Activity: 1.92%
HCT-116 [2]
  Activity: 1.74%
MCF7 [3]
  Activity: 2.11%
HepG2 [4]
  Activity: 2.18%
HepG2 [5]
  Activity: 1.55%
[6]
  inhibition: 76.3%
HCT-116 [7]
  fold change (FC): 0.64
MCF7 [8]
  fold change (FC): 0.62
HepG2 [9]
  fold change (FC): 0.56
HCT-116 [10]
  fold change (FC): 6.9
MCF7 [11]
  fold change (FC): 7
HepG2 [12]
  fold change (FC): 4.1
MCF7 [13]
  fold change (FC): 4.7
HCT-116 [14]
  Activity: 2.27%
MCF7 [15]
  Activity: 2.31%
HepG2 [16]
  Activity: 1.77%
MCF7 [17]
  Activity: 7.82%
HCT-116 [18]
  Activity: 5.23%
MCF7 [19]
  Activity: 6.28%
HepG2 [20]
  Activity: 3.51%
HCT-116 [21]
  Activity: 22.69%
HCT-116 [22]
  Activity: 29.67%
MCF7 [23]
  Activity: 29.3%
MCF7 [24]
  Activity: 16.41%
MCF7 [25]
  Activity: 44.25%
HepG2 [26]
  Activity: 13.3%
HepG2 [27]
  Activity: 36.93%
Tubulin
  pIC50: 5.44
HepG2 [28]
  Activity: 38.11%
DNA topoisomerase 2-beta
  pIC50: 6.89
[29]
  pIC50: 6.77
[30]
  pIC50: 7.27
WI-38
  pIC50: 4.41
HCT-116 [31]
  pIC50: 5.11
MCF7 [32]
  pIC50: 5.20
HCT-116 [33]
  Activity: 27.44%
HCT-116 [34]
  Activity: 42.89%
HepG2 [35]
  Activity: 24.96%
